ChEMBL document CHEMBL4420076, “Amylin and calcitonin receptor agonist” (2017)
pEC50, pIC50: −log10 of the molar value. Numbered stars: 1 amine (or outer) side, 2 acyl side, 3 side chain; on linkers, the order of the positions; unused ones are H or OH. Peptide text beside a SMILES is read from it. * marks the point of attachment. C20 diacid = O=C(O)CCCCCCCCCCCCCCCCCCC(=O)*; γGlu = O=C(O)[C@H](CCC(=O)[*:2])N[*:1]

Assays:
Rattus norvegicus [1] = experiment: Reduction in food intake in Sprague-Dawley rat at 3 nmol/kg measured 0 to 24 hrs post dose relative to control; assay type: functional; design: scale not given: the % may be the effect or the level left
Rattus norvegicus [2] = experiment: Reduction in food intake in Sprague-Dawley rat at 3 nmol/kg measured 24 to 48 hrs post dose relative to control; assay type: functional; design: scale not given: the % may be the effect or the level left
[3] = biological target: T1, Amylin receptor AMY3; CALCR/RAMP3 (Homo sapiens, UniProt O60896+P30988); experiment: Agonist activity at human amylin receptor expressed in BHK570 cells co-expressing RAMP3 assessed as increase in intracellular cAMP concentration incubated for 3 hrs in absence of albumin by CRE luciferase reporter gene assay; assay type: functional, cell-based
T1 sequence (P30988 whole entry): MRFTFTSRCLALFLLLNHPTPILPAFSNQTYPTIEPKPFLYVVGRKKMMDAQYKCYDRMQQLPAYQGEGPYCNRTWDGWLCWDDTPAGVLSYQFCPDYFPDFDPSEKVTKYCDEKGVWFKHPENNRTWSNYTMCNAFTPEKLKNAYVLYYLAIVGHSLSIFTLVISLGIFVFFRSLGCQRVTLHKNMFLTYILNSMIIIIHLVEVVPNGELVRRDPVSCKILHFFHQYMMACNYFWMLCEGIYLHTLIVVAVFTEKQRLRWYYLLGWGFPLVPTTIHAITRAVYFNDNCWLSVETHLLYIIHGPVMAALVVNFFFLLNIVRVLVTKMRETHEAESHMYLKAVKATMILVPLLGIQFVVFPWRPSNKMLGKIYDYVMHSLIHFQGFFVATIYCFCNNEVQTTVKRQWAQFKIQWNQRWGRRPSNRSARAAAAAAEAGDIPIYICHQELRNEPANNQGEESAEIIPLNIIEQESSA
T1 sequence (O60896 whole entry): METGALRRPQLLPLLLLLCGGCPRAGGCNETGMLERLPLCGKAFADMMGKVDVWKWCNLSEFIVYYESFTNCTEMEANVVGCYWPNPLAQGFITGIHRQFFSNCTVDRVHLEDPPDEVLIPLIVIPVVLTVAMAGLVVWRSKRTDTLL

Calcitonin receptor [4] = biological target: T2, Calcitonin receptor (Homo sapiens, UniProt P30988); experiment: Agonist activity at human calcitonin receptor expressed in BHK570 cells assessed as increase in intracellular cAMP concentration incubated for 3 hrs in absence of albumin by CRE luciferase reporter gene assay; assay type: functional, cell-based
T2 sequence (P30988 whole entry): T1 sequence (P30988 whole entry)

Calcitonin receptor [5] = biological target: T2, Calcitonin receptor; experiment: Agonist activity at human calcitonin receptor expressed in BHK570 cells assessed as increase in intracellular cAMP concentration incubated for 3 hrs in presence of 10% FBS by CRE luciferase reporter gene assay; assay type: functional, cell-based
[6] = Stability in pH 7.5 buffer assessed as lag time for fibril formation at 1 uM by Thioflavin T based fluorescence assay; assay type: physicochemical; details: pH 7.5, 1 µM
[7] = Stability in pH 7.5 buffer assessed as compound recovery at 1 uM by Thioflavin T based fluorescence assay; assay type: physicochemical; details: read-out: Drug recovery
[8] = Solubility in 100 mM glycylglycine buffer at pH 3.0 incubated for 18 hrs by UPLC analysis; assay type: physicochemical
[9] = Solubility in 100 mM glycylglycine buffer at pH 4.0 incubated for 18 hrs by UPLC analysis; assay type: physicochemical
[10] = Solubility in 100 mM bistrispropane buffer at pH 6.0 incubated for 18 hrs by UPLC analysis; assay type: physicochemical
[11] = Solubility in 100 mM bistrispropane buffer at pH 6.5 incubated for 18 hrs by UPLC analysis; assay type: physicochemical
[12] = Solubility in 100 mM bistrispropane buffer at pH 7.0 incubated for 18 hrs by UPLC analysis; assay type: physicochemical
[13] = Solubility in 100 mM bistrispropane buffer at pH 7.5 incubated for 18 hrs by UPLC analysis; assay type: physicochemical
[14] = Solubility in 100 mM bistrispropane buffer at pH 8.0 incubated for 18 hrs by UPLC analysis; assay type: physicochemical
[15] = biological target: T1, Amylin receptor AMY3; CALCR/RAMP3; experiment: Displacement of [125I]-labeled rat amylin from human amylin receptor expressed in BHK570 cell membranes co-expressing RAMP3 incubated for 120 mins by scintillation proximity assay
Calcitonin receptor [16] = biological target: T2, Calcitonin receptor; experiment: Displacement of [125I]-labeled human calcitonin from human calcitonin receptor expressed in BHK tkts13 cell membranes incubated for 1 hr by scintillation proximity assay
[17] = biological target: T3, Amylin receptor AMY3; CALCR/RAMP3 (Rattus norvegicus, UniProt P32214+Q9JJ73); experiment: Displacement of [125I]-labeled rat amylin from rat amylin receptor expressed in BHK tkts13 cell membranes co-expressing RAMP3 incubated for 120 mins by scintillation proximity assay
T3 sequence (P32214 whole entry): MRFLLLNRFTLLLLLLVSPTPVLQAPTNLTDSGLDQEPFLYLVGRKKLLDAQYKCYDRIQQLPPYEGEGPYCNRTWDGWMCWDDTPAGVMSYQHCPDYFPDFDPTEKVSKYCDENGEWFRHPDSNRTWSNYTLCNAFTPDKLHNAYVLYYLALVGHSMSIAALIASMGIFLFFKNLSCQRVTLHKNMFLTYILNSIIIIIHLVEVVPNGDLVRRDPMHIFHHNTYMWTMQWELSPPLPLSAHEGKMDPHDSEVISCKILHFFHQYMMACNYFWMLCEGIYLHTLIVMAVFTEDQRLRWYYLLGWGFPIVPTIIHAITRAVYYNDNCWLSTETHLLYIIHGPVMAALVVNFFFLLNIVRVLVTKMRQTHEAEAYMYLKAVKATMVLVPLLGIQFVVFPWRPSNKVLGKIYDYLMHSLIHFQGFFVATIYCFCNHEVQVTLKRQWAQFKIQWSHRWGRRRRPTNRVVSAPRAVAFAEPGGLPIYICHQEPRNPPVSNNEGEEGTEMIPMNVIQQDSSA
T3 sequence (Q9JJ73 whole entry): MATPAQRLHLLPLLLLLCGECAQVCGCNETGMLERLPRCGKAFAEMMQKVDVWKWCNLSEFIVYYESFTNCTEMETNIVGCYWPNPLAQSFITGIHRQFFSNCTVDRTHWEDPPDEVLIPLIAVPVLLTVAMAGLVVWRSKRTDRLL

pEC50 [3] | pEC50 (Calcitonin receptor [4]) | pEC50 (Calcitonin receptor [5]) | Time [6] [h] | remaining at 1 µM [7] [%] | solubility at 18 h [8] [µM] | solubility at 18 h [9] [µM] | solubility at 18 h [10] [µM] | solubility at 18 h [11] [µM] | solubility at 18 h [12] [µM] | solubility at 18 h [13] [µM] | solubility at 18 h [14] [µM] | pIC50 [15] | pIC50 (Calcitonin receptor [16]) | pIC50 [17] | Compound | Activity (Rattus norvegicus [1]) [%] | Activity (Rattus norvegicus [2]) [%]
10.43 | 10.60 | 9.97 | > 45 | 100 | ≥ 200 | ≥ 200 | ≥ 200 | ≥ 200 | ≥ 200 | ≥ 200 | ≥ 200 | 9.88 | 10.29 | 10.11 | CC(C)C[C@H](NC(=O)CNC(=O)[C@H](CO)NC(=O)[C@H](C)NC(=O)CC[C@H](NC(=O)CCCCCCCCCCCCCCCCCCC(=O)O)C(=O)O)C(=O)N[C@@H](CO)C(=O)N[C@H](C(=O)N[C@@H](C)C(=O)N[C@@H](C)C(=O)N[C@@H](CC(C)C)C(=O)NCC(=O)N[C@@H](CCCNC(=N)N)C(=O)N[C@@H](CC(C)C)C(=O)N[C@@H](CO)C(=O)N[C@@H](CCC(N)=O)C(=O)N[C@@H](CCC(=O)O)C(=O)N[C@@H](CC(C)C)C(=O)N[C@@H](Cc1cnc[nH]1)C(=O)N[C@@H](CCC(=O)O)C(=O)N[C@@H](CC(C)C)C(=O)N[C@@H](CCC(N)=O)C(=O)N[C@H](C(=O)N[C@@H](Cc1ccc(O)cc1)C(=O)N1CCC[C@H]1C(=O)N[C@@H](CCCNC(=N)N)C(=O)N[C@H](C(=O)N[C@@H](CCC(=O)O)C(=O)N[C@H](C(=O)NCC(=O)N[C@@H](CO)C(=O)N[C@@H](CCC(N)=O)C(=O)N[C@H](C(=O)N[C@@H](Cc1ccc(O)cc1)C(N)=O)[C@@H](C)O)[C@@H](C)O)[C@@H](C)O)[C@@H](C)O)[C@@H](C)O ({C20 diacid-γGlu}-ASGLSTAALGRLSQELHELQTYPRTETGSQTY-NH2) | 40 | 42
10.14 | 10.31 | 10.21 | 1.5 | 39.5 | ≥ 200 |  | ≥ 200 | ≥ 200 | ≥ 200 | ≥ 200 | ≥ 200 | 9.82 | 10.17 | 10.28 | CC(C)C[C@H](NC(=O)CNC(=O)[C@H](CO)NC(=O)[C@H](C)NC(=O)CC[C@H](NC(=O)CCCCCCCCCCCCCCCCCCC(=O)O)C(=O)O)C(=O)N[C@@H](CO)C(=O)N[C@H](C(=O)N[C@@H](C)C(=O)N[C@H](C(=O)N[C@@H](CC(C)C)C(=O)NCC(=O)N[C@@H](CCCNC(=N)N)C(=O)N[C@@H](CC(C)C)C(=O)N[C@@H](CO)C(=O)N[C@@H](CCC(N)=O)C(=O)N[C@@H](CCC(=O)O)C(=O)N[C@@H](CC(C)C)C(=O)N[C@@H](Cc1cnc[nH]1)C(=O)N[C@@H](CCC(=O)O)C(=O)N[C@@H](CC(C)C)C(=O)N[C@@H](CCC(N)=O)C(=O)N[C@H](C(=O)N[C@@H](Cc1ccc(O)cc1)C(=O)N1CCC[C@H]1C(=O)N[C@@H](CCCNC(=N)N)C(=O)N[C@H](C(=O)N[C@@H](CCC(=O)O)C(=O)N[C@H](C(=O)NCC(=O)N[C@@H](CO)C(=O)N[C@@H](CCC(N)=O)C(=O)N[C@H](C(=O)N[C@@H](Cc1ccc(O)cc1)C(N)=O)[C@@H](C)O)[C@@H](C)O)[C@@H](C)O)[C@@H](C)O)C(C)C)[C@@H](C)O ({C20 diacid-γGlu}-ASGLSTAVLGRLSQELHELQTYPRTETGSQTY-NH2) | 25 | 29
